# Earlier results, collected in US6268341A, “Expression of urokinase plasminogen activator inhibitors” (Chiron Corporation, priority 1998, dated 2001).
# Where no end group is shown, it is not given here. Fuc = fucose (fucosylation)
# How the values were obtained:
# [1] = tested on: osteosarcoma cell line, SaOS-2; conditions: Rabbani et al.
# uPAR = uPAR (Homo sapiens, UniProt Q03405); conditions: Appella et al., J Biol Chem 1987
# Chain of uPAR (Q03405 23-335): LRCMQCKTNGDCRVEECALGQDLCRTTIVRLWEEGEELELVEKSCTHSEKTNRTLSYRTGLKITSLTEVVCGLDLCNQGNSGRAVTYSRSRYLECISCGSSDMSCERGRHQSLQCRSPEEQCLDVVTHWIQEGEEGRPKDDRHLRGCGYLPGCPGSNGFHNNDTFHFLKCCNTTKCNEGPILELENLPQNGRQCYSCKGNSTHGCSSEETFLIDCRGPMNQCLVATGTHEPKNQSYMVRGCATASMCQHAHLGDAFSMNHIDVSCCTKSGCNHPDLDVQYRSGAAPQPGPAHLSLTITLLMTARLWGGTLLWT
affinity relative to intact ATF (fold less) (uPAR),Substance,mitogenic activity [1]
,"fucosylated EGF-like domain: fucosylated EGF-like domain (uPA4-43, produced by cleavage from prouPA) (LHQVPSNCDCLNGGT(Fuc)CVSNKYFSNIHWCNCPKKFGGQHCE; cysteine pairing not given here; UniProt P00749 24-63, looked up, fragment)",mitogenic
about 100 fold,"uPA12-32: critical receptor-binding domain alone, residues 12-32 of uPA (DCLNGGTCVSNKYFSNIHWCN; UniProt P00749 32-52, looked up, fragment)",
